Data published in patent publication US11971413B2, “Peptoid, and its preparation method and use” (BEIJING BOE TECHNOLOGY DEVELOPMENT CO., LTD., priority 2019, dated 2024).
Where a SMILES comes first, the peptide text is derived from it. [ ]: non-standard residue; d: D form. ξ: configuration not given here. N(CH2CH2COOH)Gly = O=C(O)CCNCC(=O)O; Gly(N-CH2CH2OH) = O=C(O)CNCCO; Nleu = CC(C)CNCC(=O)O; Nlys = NCCCCNCC(=O)O; ξC = NC(CS)C(=O)O

Assays:
[1] = test system: human embryonic kidney 293T cell line with low expression of EpCAM; experiment: Cell-level imaging with fluorescently labeled peptoid molecular probe, laser confocal microscopy, 293T control cells; type: cell-based; settings: 293T cells (low EpCAM, control group), probe incubated at 4° C. for 30 min, confocal 100× oil objective
Procedure: (§1) The specific steps for cell-level imaging using a fluorescently labeled molecular probe with a peptoid were as follows: • (1) Cell culture and passage: The cell models were an Huh7 cell line with high expression of an EpCAM protein and a human embryonic kidney 293T cell line with low expression of EpCAM (Shanghai Biological Technology Co., Ltd. enzyme research); Huh7 and 293T cells were cultured in a constant temperature incubator (5% CO2) at 37° C. with RPMI1640 medium and DMEM/High glucose medium containing 10% fetal bovine serum and 1% penicillin and streptomycin, respectively; • (2) When the degree of cell fusion reached more than 90%, the cells were passaged. […]

[2] = test system: Huh7 cell line with high expression of an EpCAM protein; experiment: Cell-level imaging with fluorescently labeled peptoid molecular probe, laser confocal microscopy, Huh7 cells; type: cell-based; settings: probe incubated at 4° C. for 30 min, confocal 100× oil objective
Procedure: as §1

Q: How did the “FITC green fluorescence on the cell membrane” value [1] turn out when `CC(C)CNCC(=O)N(CCCCN)CC(=O)N(CCO)CC(=O)N(CCC(=O)O)CC(=O)N(CCCCN)CC(=O)N(CCCCN)CC(=O)NC(CS)C(N)=O` (centres unmarked) [Example 1] (H-[Nleu][Nlys][Gly(N-CH2CH2OH)][N(CH2CH2COOH)Gly][Nlys][Nlys][ξC]-NH2) was run?
A: Its value is “weak green fluorescence or no green fluorescence”.

Q: And the “FITC green fluorescence on the cell membrane” value [2]?
A: Its value is “Significant green fluorescence”.
